Paper PMC9490041, “Determinants of affinity, specificity, and phase separation in a supramodule from Post-synaptic density protein 95” (iScience, 2022)
Where two headings read alike, the source gives them in different places.

Legend:
Experiment in all cases: FP displacement (competition) of FITC-15 AA CRIPT by library peptide, IC50 and Ki
PSG (PSD-95) = settings: for IC50: read-out: IC50 (µM), PSG
PSG G322A (PSD-95) = settings: for IC50: read-out: IC50 (µM), PSG G322A; for Ki: read-out: Ki (µM), PSG G322A
PSG G322A G335A (PSD-95) = settings: for IC50: read-out: IC50 (µM), PSG G322A G335A; for Ki: read-out: Ki (µM), PSG G322A G335A
PSG G335A (PSD-95) = settings: for IC50: read-out: IC50 (µM), PSG G335A; for Ki: read-out: Ki (µM), PSG G335A
[1] = FP displacement of FITC-15 AA CRIPT probe by acetylated PSD library peptide
[2] = read-out: Ki (µM), PSG, FP displacement of FITC-15 AA CRIPT probe by acetylated PSD library peptide
[3] = FP displacement of FITC-15 AA CRIPT probe by acetylated PSD library peptide (P-13 to P0 plus extra N-terminal Y)
[4] = FP displacement of FITC-15 AA CRIPT probe by PSD library peptide, protein PSG (wild type)
[5] = read-out: Ki (µM), PSG, FP displacement of FITC-15 AA CRIPT probe by PSD library peptide, protein PSG (wild type)
[6] = FP displacement of FITC-15 AA CRIPT probe by PSD library peptide, protein PSG G322A
[7] = FP displacement of FITC-15 AA CRIPT probe by PSD library peptide, protein PSG G322A G335A
[8] = FP displacement of FITC-15 AA CRIPT probe by PSD library peptide, protein PSG G335A

Row | SMILES | IC50 (PSG (PSD-95); [1]) | Ki (PSG (PSD-95); [2]) | IC50 (PSG G322A (PSD-95); [1]) | Ki (PSG G322A (PSD-95); [1]) | IC50 (PSG G322A G335A (PSD-95); [3]) | Ki (PSG G322A G335A (PSD-95); [1]) | IC50 (PSG G335A (PSD-95); [1]) | Ki (PSG G335A (PSD-95); [1]) | IC50 (PSG (PSD-95); [4]) | Ki (PSG (PSD-95); [5]) | IC50 (PSG G322A (PSD-95); [6]) | Ki (PSG G322A (PSD-95); [6]) | IC50 (PSG G322A G335A (PSD-95); [7]) | Ki (PSG G322A G335A (PSD-95); [7]) | IC50 (PSG G335A (PSD-95); [8]) | Ki (PSG G335A (PSD-95); [8]) | Ki (PSG (PSD-95); FP displacement of 5 nM FITC-15 AA CRIPT by non-labeled acetylated peptide, room temperature, Ki from IC50, technical triplicates, PSG)
1 | CC[C@H](C)[C@H](NC(=O)[C@@H](NC(=O)[C@H](CCCCN)NC(=O)[C@H](CCCCN)NC(=O)CNC(=O)[C@H](CC(C)C)NC(=O)[C@H](CCCCN)NC(=O)[C@H](C)NC(=O)[C@H](CCSC)NC(=O)[C@H](CCCNC(=N)N)NC(=O)[C@H](CCSC)NC(=O)[C@H](CCCNC(=N)N)NC(=O)[C@H](CC(C)C)NC(=O)[C@H](C)NC(=O)[C@H](Cc1ccc(O)cc1)NC(C)=O)C(C)C)C(=O)O [PALMD] | 1160 µM | 493 µM | 1450 µM | 629 µM | 1630 µM | 564 µM | 1600 µM | 569 µM |  |  |  |  |  |  |  |  | 
2 | CC(=O)N[C@@H](Cc1ccc(O)cc1)C(=O)N[C@@H](CCCNC(=N)N)C(=O)N[C@@H](CCC(N)=O)C(=O)N1CCC[C@H]1C(=O)N[C@@H](CC(C)C)C(=O)N1CCC[C@H]1C(=O)N[C@@H](CC(=O)O)C(=O)N[C@@H](CO)C(=O)N[C@@H](CC(N)=O)C(=O)N1CCC[C@H]1C(=O)N[C@@H](CCC(=O)O)C(=O)N[C@@H](CCC(=O)O)C(=O)N[C@@H](CO)C(=O)N[C@@H](CO)C(=O)N[C@H](C(=O)O)C(C)C [SEM4C] |  |  |  |  |  |  |  |  | 631 µM | 269 µM | 156 µM | 68 µM | 147 µM | 51 µM | 329 µM | 117 µM | 
3 | CC(=O)N[C@@H](Cc1ccc(O)cc1)C(=O)N1CCC[C@H]1C(=O)N[C@@H](CCC(N)=O)C(=O)N[C@@H](Cc1c[nH]cn1)C(=O)N[C@@H](CC(C)C)C(=O)N[C@@H](CCCNC(=N)N)C(=O)N[C@H](C(=O)N[C@@H](C)C(=O)N[C@@H](CO)C(=O)N[C@@H](CCCCN)C(=O)N[C@@H](CC(N)=O)C(=O)N[C@@H](CCC(=O)O)C(=O)N[C@H](C(=O)N[C@H](C(=O)N[C@H](C(=O)O)C(C)C)[C@@H](C)O)C(C)C)[C@@H](C)O [SHSA7] |  |  |  |  |  |  |  |  | 1120 µM | 475 µM | 695 µM | 301 µM | 1680 µM | 580 µM | 980 µM | 349 µM | 
4 | CC(=O)N[C@@H](Cc1ccc(O)cc1)C(=O)N[C@@H](CO)C(=O)N[C@@H](CO)C(=O)N[C@H](C(=O)N[C@@H](CO)C(=O)N1CCC[C@H]1C(=O)N[C@@H](CCC(N)=O)C(=O)N[C@@H](CO)C(=O)N[C@H](C(=O)N[C@@H](CC(=O)O)C(=O)N[C@@H](CCCCN)C(=O)N[C@@H](CO)C(=O)N[C@@H](CO)C(=O)N[C@H](C(=O)N[C@H](C(=O)O)C(C)C)[C@@H](C)O)[C@@H](C)O)[C@@H](C)O [SRGP2] |  |  |  |  |  |  |  |  | 1450 µM | 765 µM | 792 µM | 343 µM | 435 µM | 151 µM | 603 µM | 215 µM | 
5 | CC(=O)N[C@@H](Cc1ccc(O)cc1)C(=O)N[C@@H](CC(C)C)C(=O)N[C@@H](C)C(=O)N[C@@H](CC(=O)O)C(=O)N[C@@H](CCC(=O)O)C(=O)N[C@H](C(=O)N[C@@H](CO)C(=O)N[C@@H](C)C(=O)N[C@@H](CO)C(=O)N[C@@H](CC(C)C)C(=O)N[C@@H](C)C(=O)N[C@@H](CCCCN)C(=O)N[C@@H](CCC(N)=O)C(=O)NCC(=O)N[C@@H](CC(C)C)C(=O)O)C(C)C [TAU] |  |  |  |  |  |  |  |  | 2070 µM | 884 µM | 489 µM | 212 µM | 219 µM | 76 µM | 729 µM | 260 µM | 
6 | CC[C@H](C)[C@H](NC(=O)[C@H](CCC(=O)O)NC(=O)[C@H](CCC(=O)O)NC(=O)[C@@H](NC(=O)[C@@H](NC(=O)[C@H](CO)NC(=O)[C@H](CCC(=O)O)NC(=O)[C@H](Cc1ccc(O)cc1)NC(C)=O)[C@@H](C)O)[C@@H](C)O)C(=O)N[C@@H](CCC(=O)O)C(=O)N[C@@H](CC(C)C)C(=O)N[C@@H](CCC(=O)O)C(=O)N[C@@H](CC(=O)O)C(=O)N[C@H](C(=O)N[C@@H](CCC(=O)O)C(=O)N[C@@H](CS)C(=O)O)C(C)C [VSTM5] | 75 µM | 31 µM | 86 µM | 37 µM | 73 µM |  | 120 µM | 43 µM |  |  |  |  |  |  |  |  | < 75 µM
